Blank lines part the entries; values can stand above or below the compound they belong to.
Experiments:
[1] = Plasma protein binding rate (rat); assay type: in vitro ADME; details: 37° C. 6 h
Method: (§1) Test Example 6. Assay of Plasma Protein Binding Rate
(§2) The objective of the experiment is to determine the plasma protein binding of the compounds of the Examples in plasma.
(§3) The compound of the Example was formulated into 1 mM solution A with DMSO;
(§4) The solution A was added to the plasma solution to obtain 5 μM solution B;
(§5) 1) 200 μL of solution B was added to the inside of the membrane;
(§6) 2) […] of PBS was added to the outside of the membrane;
(§7) 3) Incubation in a water bath at 37° C. for 6 h;
(§8) 4) The sample was diluted and analyzed by mass spectrometry.

[2] = Plasma protein binding rate (dog); assay type: in vitro ADME; details: 37° C. 6 h
Method: as §1, §2, §3, §4, §5, §6, §7, §8

[3] = Plasma protein binding rate (human); assay type: in vitro ADME; details: 37° C. 6 h
Method: as §1, §2, §3, §4, §5, §6, §7, §8

[4] = Metabolic stability in liver microsome (mouse); assay type: in vitro ADME; details: mouse liver microsome 0.5 mg/mL, compound 1 μM; for half-life at 1 μM: liver microsomes, NADPH/UDPGA
Method: Test Example 5. Assay of Metabolic Stability in Liver Microsome
The objective of the experiment is to determine the stability of the compounds of the Examples in liver microsome of mouse, rat, dog and human.
Formulation of the working solution of the compound: The stock solution of the compound was added to phosphate buffer, and the final concentration was 20 μM.
Liver microsome was diluted with 100 mM phosphate buffer to obtain a final concentration of 0.625 mg/mL.
NADPH (reduced nicotinamide adenine dinucleotide phosphate) and UDPGA (uridine diphosphate glucuronic acid) were weighed respectively, followed by addition of 100 mM phosphate buffer. The final concentrations were 20 mM.
1 mg of Alamethicin was weighed, to which 200 μL of DMSO was added to obtain a 5 mg/mL solution. The solution was diluted with phosphate buffer to obtain a final concentration of 50 μg/mL.
2.5 Formulation of the reaction stop solution Stop solution: Cold acetonitrile containing 100 ng/mL labetalol hydrochloride and 400 ng/mL tolbutamide as internal standards.
400 μL of the prepared liver microsome, 25 μL of the working solution of the compound and 25 μL of Alamethicin were added to a 96-well plate successively, which was then pre-incubated at 37° C. for 10 min. 50 μL of the prepared NADPH/UDPGA was added to initiate the reaction, and the plate was incubated at 37° C. The total volume of the reaction system was 500 μL. The final contents of the components were as follows: […]

[5] = target: T1, CYP450 enzyme isoform 1A2 (Homo sapiens, UniProt P05177); experiment: CYP enzyme single-point inhibition assay, 1A2; assay type: in vitro ADME; details: human liver microsome, single-point method
T1 construct: single-point method using human liver microsome incubation system; from tissue; host or cells: human liver microsomes
T1 sequence (P05177 1-516): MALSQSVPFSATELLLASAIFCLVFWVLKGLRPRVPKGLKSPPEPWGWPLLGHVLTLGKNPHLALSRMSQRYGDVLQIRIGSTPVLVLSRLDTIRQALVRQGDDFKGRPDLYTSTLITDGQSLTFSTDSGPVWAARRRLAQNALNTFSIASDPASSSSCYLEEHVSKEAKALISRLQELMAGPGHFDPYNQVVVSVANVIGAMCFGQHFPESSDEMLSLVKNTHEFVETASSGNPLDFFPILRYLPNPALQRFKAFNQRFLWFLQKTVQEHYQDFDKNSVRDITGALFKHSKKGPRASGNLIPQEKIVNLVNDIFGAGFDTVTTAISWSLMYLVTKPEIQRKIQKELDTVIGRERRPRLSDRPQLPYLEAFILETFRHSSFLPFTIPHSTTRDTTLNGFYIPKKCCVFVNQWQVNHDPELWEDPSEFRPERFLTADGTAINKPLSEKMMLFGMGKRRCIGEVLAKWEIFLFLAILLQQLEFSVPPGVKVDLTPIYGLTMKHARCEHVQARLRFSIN
Method: Test Example 7. CYP Enzyme Single-Point Inhibition Assay
The inhibition of the compounds on CYP450 enzyme isoformwas rapidly predicted by single-point method using human liver microsome incubation system.
2.5 mM NADPH: 4.165 mg of NADPH (reduced nicotinamide adenine dinucleotide phosphate) was weighed, followed by addition of 100 mM phosphate buffer to 2 mL. 0.25 mg/mL microsome solution: 4 mL of 100 mM phosphate buffer was added to 50 μL of 20 mg/mL microsome solution and mixed well.
The test compound of the Example was weighed, diluted to 10 mM with DMSO and then to 100 μM with 100 mM phosphate buffer.
1. 40 μL of liver microsome, 10 μL of substrate and 10 μL of the test compound were added to a 96-well plate and pre-incubated for 3 min.
2. 40 μL of NADPH was added.
3. 300 μL of acetonitrile stop solution containing internal standard was added at 20 min.
4. The sample was centrifuged and injected.

BALB/c mice = experiment: Taste sensitivity assay in BALB/c mice (quinine solution intake); assay type: in vivo; details: 30 mpk; for Solution consumption of single mouse, Quinine solution: 3 mmol/L quinine hydrochloride, 30 min; for Dysgeusia rate: quinine solution vs solvent groups (20% HP-B-CD)
Method: Test Example 9. Taste Sensitivity Assay in BALB/c Mice
In this assay, compounds with less toxic and side effects on animal taste were screened by quinine bitter solution experiment.
BALB/c mice, 6 to 8 weeks old, ♂, purchased from Shanghai SIPPR-BK Laboratory Animal Co., Ltd.
BALB/c mice were randomly grouped according to body weight, and were deprived of water 12 to 16 hours before administration with no fasting.
An appropriate amount of quinine monohydrochloride dihydrate was weighed and formulated into an aqueous solution quinine hydrochloride (concentration: 3 mmol/L) with ultrapure water for later use.
An appropriate amount of the test compound was weighed and formulated into the target concentration with the corresponding solvent according to the experimental design for later use.
Administration and fasting: On the day of the experiment, the animals were weighed and fasted, bedding was changed, and the compounds were administered according to the experimental design.
1. The corresponding clean mouse drinking bottle was rinsed 2 to 3 times with ultrapure water and the formulated 3 mmol/L aqueous solution of quinine hydrochloriderespectively. The bottle was filled and weighed, and the weight was recorded as Wi0.
2. According to the experimental design, a certain period after administration, the filled bottle was gently placed in the corresponding mouse cage, and the timing was started. After 30 min, the bottle was gently taken out and weighed, and the weight was recorded as Wi30.
3. Calculation of solution consumption of animals in each group: ΔWW(g)=[…]; calculation of solution consumption of single mouse: ΔpWW(g)=ΔWW/N, N is the number of animals in each group.
4. Dysgeusia rate=(ΔpWW of the group in which the drinking water was the aqueous solution of quinine hydrochlorideand the test compound was administered at the same time −ΔpWW of the group in which the drinking water was aqueous solution of quinine hydrochlorideand the solvent control was administered at the same time)/(ΔpWW of the group in which the drinking water was ultrapure water and the solvent control was administered at the same time −ΔpWW of the group in which the drinking water was aqueous solution of quinine hydrochloride and the solvent control was administered at the same time)×100%. Data processing was performed with software such as Excel.

- fraction unbound at 6 h, 5 μM [1]: 0.234
- fraction unbound at 6 h, 5 μM [2]: 0.135
- fraction unbound at 6 h, 5 μM [3]: 0.135
SMILES: N#Cc1cnn2c3nc(C(F)(F)F)ccc3c(=O)n(CC(=O)Nc3ccc(F)cn3)c12 [Example 80, 2-(3-Cyano-5-oxo-8-(trifluoromethyl)pyrazolo[1,5-a]pyrido[3,2-e]pyrimidin-4(5H)-yl)-N-(5-fluoropyridin-2-yl)acetamide]

SMILES: O=C(Cn1c(=O)c2ccc(C(F)(F)F)nc2n2nccc12)Nc1ccc(F)cn1 [Example 78, N-(5-Fluoropyridin-2-yl)-2-(5-oxo-8-(trifluoromethyl)pyrazolo[1,5-a]pyrido[3,2-e]pyrimidin-4(5H)-yl)acetamide]
- half-life at 1 μM [4]: 568 h
- Remaining (%, 60 min) [4]: 99.3%
- fraction unbound at 6 h, 5 μM [1]: 0.061
- fraction unbound at 6 h, 5 μM [2]: 0.147
- fraction unbound at 6 h, 5 μM [3]: 0.103
- IC50 [5]: > 100 µM
- Solution consumption of single mouse, Quinine solution (BALB/c mice): 0.016 g
- Dysgeusia rate (BALB/c mice): −9.81%

SMILES: CCc1cc2n(CC(=O)Nc3ccc(F)cn3)c(=O)c3ccc(C(F)(F)F)nc3n2n1 [Example 34, 2-(2-Ethyl-5-oxo-8-(trifluoromethyl)pyrazolo[1,5-a]pyrido[3,2-e]pyrimidin-4(5H)-yl)-N-(5-fluoropyridin-2-yl)acetamide]
- half-life at 1 μM [4]: 3.11 h
- Remaining (%, 60 min) [4]: 81.3%
- fraction unbound at 6 h, 5 μM [1]: 0.044
- fraction unbound at 6 h, 5 μM [2]: 0.032
- fraction unbound at 6 h, 5 μM [3]: 0.015
- IC50 [5]: 24.9 µM

SMILES: N#Cc1cc2n(CC(=O)Nc3ccc(F)cn3)c(=O)c3ccc(C(F)(F)F)nc3n2n1 [Example 68, 2-(2-Cyano-5-oxo-8-(trifluoromethyl)pyrazolo[1,5-a]pyrido[3,2-e]pyrimidin-4(5H)-yl)-N-(5-fluoropyridin-2-yl)acetamide]
- half-life at 1 μM [4]: 2.75 h
- Remaining (%, 60 min) [4]: 91.6%
- fraction unbound at 6 h, 5 μM [1]: 0.11
- fraction unbound at 6 h, 5 μM [2]: 0.084
- fraction unbound at 6 h, 5 μM [3]: 0.066
- IC50 [5]: > 100 µM
- Solution consumption of single mouse, Quinine solution (BALB/c mice): 0.056 g
- Dysgeusia rate (BALB/c mice): −2.26%

SMILES: O=C(Cn1c(=O)c2ccc(C(F)(F)F)nc2n2nc(Br)cc12)Nc1ccc(F)cn1 [Example 61-A, 2-(2-bromo-5-oxo-8-(trifluoromethyl)pyrazolo[1,5-a]pyrido[3,2-e]pyrimidin-4(5H)-yl)-N-(5-fluoropyridin-2-yl)acetamide]
- half-life at 1 μM [4]: 6.82 h
- Remaining (%, 60 min) [4]: 92.5%
- fraction unbound at 6 h, 5 μM [1]: 0.027
- fraction unbound at 6 h, 5 μM [2]: 0.037
- fraction unbound at 6 h, 5 μM [3]: 0.016
- IC50 [5]: 72.1 µM
- Solution consumption of single mouse, Quinine solution (BALB/c mice): 0.048 g
- Dysgeusia rate (BALB/c mice): −3.77%
